13 compounds from PMC10674894 (Viruses, 2023) can be followed below.

SMILES strings stand for the structures.

Series [1] has as its system Vero cells. Put plainly: Cytotoxicity MTT assay in Vero cells (MNTD, CC50). It is filed as cell-based, African green monkey.
The test system of series [2] is CHIKV DRDE-07. Nature of the series: In vitro screening against CHIKV (CPE inhibition and MTT cell viability). The format is cell-based, chikungunya virus. To be noted: for % Cell viability / CPE: Table S1, CHIKV-infected Vero cells; for % Cell viability: MTT assay; for CPE: arbitrary score of cytopathic effect at >48 hpi. For orientation: Formazan colour is commonly taken as a measure of viable cells.

In turn, `CCOc1cc(/C=N/NC(=O)c2ccncc2)ccc1O` [DCR33, (E)-N'-(3-ethoxy-4-hydroxybenzylidene)isonicotinohydrazide] showed an MNTD in series [1] (Table S1, Vero cells) of 62.5 µM. Moreover, in series [2] (72 hpi), the “% Cell viability” value was 0%. In addition, the CPE entry in series [2] was “++++ (>60% (++++))”.

In series [1] (Table S1, Vero cells), `CC(=O)NNC(=O)c1cccnc1` [DCR7, N'-acetylnicotinohydrazide] yielded an MNTD of 62.5 µM. Also, the “% Cell viability” value in series [2] (72 hpi) turned out to be 20.31%. Besides, in series [2], the CPE entry was “++++ (>60% (++++))”.

As for `N#Cc1cc(F)ccc1N1CCCCC1` [DCR145, 5-Fluoro-2-piperidin-1-yl-benzonitrile], in series [1] (Table S1, Vero cells), the MNTD is given as 125 µM. Further, the “% Cell viability” value in series [2] (72 hpi) stood at 0%. In series [2], the CPE result is on record as “++++ (>60% (++++))”.

`O=[N+]([O-])c1ccc(N2CCCCC2)c([N+](=O)[O-])c1` [DCR144, 1-(2,4-Dinitro-phenyl)-piperidine] had an MNTD in series [1] (Table S1, Vero cells) of 125 µM. Besides, the “% Cell viability” value in series [2] (72 hpi) worked out at 25.21%. Besides, the CPE entry in series [2] is listed as “++++ (>60% (++++))”.

In the case of `O=C(c1cccnc1)n1nc(-c2ccc(O)cc2)cc1-c1ccc(Cl)cc1Cl` [DCR54, 4-[5-(2,4-dichlorophenyl)-1-(pyridine-3-carbonyl)-1H-pyrazol-3-yl]phenol], in series [1] (Table S1, Vero cells), the MNTD stood at 15.62 µM. In addition, the “% Cell viability” value in series [2] (72 hpi) is listed as 8.73%. Also, in series [2], the CPE result was “++++ (>60% (++++))”.

With `CC(=O)Cc1noc(-c2cc(Cl)ccc2Cl)n1` [DCR83, 1-[5-(2,5-dichlorophenyl)-1,2,4-oxadiazol-3-yl]propan-2-one], the MNTD in series [1] (Table S1, Vero cells) is recorded as 230.55 µM. The “% Cell viability” value in series [2] (72 hpi) worked out at 10.49%. The CPE entry in series [2] is “++++ (>60% (++++))”.

In series [1] (Table S1, Vero cells), `COc1cccc(N2CCCCC2)c1C#N` [DCR143, 2-Methoxy-6-piperidin-1-yl-benzonitrile] showed an MNTD of 125 µM. The “% Cell viability” value in series [2] (72 hpi) was determined as 17.42%. The CPE entry in series [2] is on record as “++++ (>60% (++++))”.

`CC(=O)Cc1noc(C2CCCCC2)n1` [DCR80, 1-(5-cyclohexyl-1,2,4-oxadiazol-3-yl)propan-2-one] registered an MNTD in series [1] (Table S1, Vero cells) of 125 µM. Further, in series [2] (72 hpi), the “% Cell viability” value is given as 29.64%. Also, in series [2], the CPE result is given as “++++ (>60% (++++))”.

Consider `C/C(=N\NC(=O)c1ccncc1)c1ccc(O)cc1` [DCR50, (E)-N'-(1-(4-hydroxyphenyl)ethylidene)isonicotinohydrazide], for which, in series [1] (Table S1, Vero cells), the MNTD worked out at 62.5 µM. For the same compound, the “% Cell viability” value in series [2] (72 hpi) was determined as 18.01%. Further, the CPE result in series [2] is “++++ (>60% (++++))”.

As for `Nc1nc(N)c2c(F)cccc2n1` [DCR 135, 5-fluoro-quinazoline-2,4-diamine], the MNTD came to 250 µM in series [1] (Table S1, Vero cells) and 250 µM in series [1] (maximum nontoxic dose in Vero cells, MTT). Besides, in series [2] (CHIKV-infected Vero cells treated at MNTD, 72 hpi, MTT, cell control + DMSO = 100%), the “Cell Viability” value came out at 61%. In addition, the CPE entry in series [2] is “++ (50-30% (++))”.

Take `O=C1NC(c2ccc(Cl)cc2)c2c(ccc3ccccc23)O1` (stereo not shown) [DCR64, 1-(4-chlorophenyl)-1H,2H,3H-naphtho[1,2-e][1,3]oxazin-3-one]: the MNTD in series [1] (Table S1, Vero cells) is on record as 31.25 µM. For the same compound, the “% Cell viability” value in series [2] (72 hpi) is recorded as -3.8%. In addition, the CPE entry in series [2] is on record as “++++ (>60% (++++))”.

Consider `CC1=C(C(=O)OCC[N+](C)(C)C)C(c2ccc(Cl)cc2)NC(=O)N1` (stereo not shown) [DCR106, 2-({[4-(4-chlorophenyl)-6-methyl-2-oxo-1,2,3,4-tetrahydropyrimidin-5-yl]carbonyl}oxy)-N,N,N-trimethylethanaminium], for which the MNTD in series [1] (Table S1, Vero cells) is given as 62.5 µM. Moreover, the “% Cell viability” value in series [2] (72 hpi) was found to be 3.33%. The CPE entry in series [2] is “++++ (>60% (++++))”.

In turn, `N#Cc1ccc(N2CCN(CCO)CC2)cc1N1CCN(CCO)CC1` [DCR150, 2,4-Bis-[4-(2-hydroxy-ethyl)-piperazin-1-yl]-benzonitrile] yielded an MNTD in series [1] (Table S1, Vero cells) of 62.5 µM. Also, the “% Cell viability” value in series [2] (72 hpi) is listed as 18.09%. Also, in series [2], the CPE result was “++++ (>60% (++++))”.
